ChEMBL document CHEMBL3046728, “Modifications to five-substituted 3,3-diethyl-4,5-dihydro-2(3H)-furanones en route to novel muscarinic receptor ligands” (Med Chem Res, 2011)

Columns and labels:
[1] = molecular target: Muscarinic acetylcholine receptor (Rattus norvegicus) (UniProt P08482+P08483+P08485+P08911+P10980); test: Displacement of [3H]-QNB from muscarnic receptor in Rattus norvegicus (rat) cerebral cortex at 10 uM after 90 min by scintillation counting analysis; format: tissue-based
[2] = molecular target: Muscarinic acetylcholine receptor; test: Displacement of [3H]-QNB from muscarnic receptor in Rattus norvegicus (rat) cerebral cortex after 90 min by scintillation counting analysis; format: tissue-based

SMILES | inhibition [1] [%] | IC50 [2] [nM]
CCC1(CC)CC(CN2CCc3ccccc3C2)OC1=O (stereo unspecified) | 44 | –
CCC1(CC)CC(CN2CCN(c3ccc([N+](=O)[O-])cc3)CC2)OC1=O (stereo unspecified) | 18 | –
CCC1(CC)CC(CN2CCN(c3ccccc3O)CC2)OC1=O (stereo unspecified) | 46 | –
CCC1(CC)CC(CN2CCN(c3ccccc3OC)CC2)OC1=O (stereo unspecified) | 32 | –
CCC1(CC)CC(CN2CCN(c3ccc(OC)cc3)CC2)OC1=O (stereo unspecified) | 26 | –
CCC1(CC)CC(CN2CCN(c3ccccc3)CC2)OC1=O (stereo unspecified) | 16 | –
CCC1(CC)CC(CN2CCC(c3nc4ccccc4[nH]3)CC2)OC1=O (stereo unspecified) | 46 | –
CCC1(CC)CC(CN2CCC(c3ccccc3)CC2)OC1=O (stereo unspecified) | 68 | –
CCC1(CC)CC(CN2CCN(c3ccccc3C#N)CC2)OC1=O (stereo unspecified) | 31 | –
CCC1(CC)CC(CN2CCN(C(c3ccccc3)c3ccccc3)CC2)OC1=O (stereo unspecified) | 97 | 340
CCC1(CC)CC(CN2CCN(c3ccc(C#N)cc3)CC2)OC1=O (stereo unspecified) | 18 | –
CCC1(CC)CC(CN2CCN(C(=O)c3ccccc3)CC2)OC1=O (stereo unspecified) | 5 | –
CCC1(CC)CC(CN2CCN(c3ccc(O)cc3)CC2)OC1=O (stereo unspecified) | 7 | –
CCC1(CC)CC(COC(=O)Nc2ccc(N3CCCCC3)cc2)OC1=O (stereo unspecified) | 31 | –
CCC1(CC)CC(CN2CCN(c3cccc(OC)c3)CC2)OC1=O (stereo unspecified) | 9 | –
